# Test results reported in patent publication US9999222B2, “Herbicidal combination comprising azines” (BASF SE, priority 2014, dated 2018).
# Where “and” joins values, the source holds several entries; their conditions need not be identical. Identical values can stand only once. Like-named read-outs stand apart in the source and are kept apart here.
# Key:
# Test in all cases: Greenhouse test, pre-emergence treatment
# [1] = system: GALAP; type: in vivo, Galium aparine
# In short: (§1)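 Seeds were sown in loamy sand with approximately 3.0% humus, then sprayed at once with actives suspended or emulsified in water. Pots were watered, hooded until rooting, held at 10-25° C. or 20-35° C. by species for 2 to 4 weeks, and scored 0 (no damage) to 100 (no emergence/complete destruction).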
# [2] = system: GERPU; type: in vivo, Geranium pusillum; conditions: 20 DAT
# In short: as §1
# [3] = system: LOLMU; type: in vivo, Lolium multiflorum; conditions: Lolium multiflorum, pre-emergence, read-out: observed % activity; for inhibition at 8 g/ha: 8 g ai/ha; for inhibition at 16 g/ha: 16 g ai/ha
# In short: as §1
# [4] = system: AVEFA; type: in vivo, Avena fatua; conditions: for observed % activity: 20 DAT
# In short: as §1
# [5] = system: KCHSC; type: in vivo, Kochia scoparia; conditions: 20 DAT
# In short: as §1
# [6] = system: EPHHL; type: in vivo, Euphorbia heterophylla; conditions: 20 DAT
# In short: as §1
# [7] = system: IPOHE; type: in vivo, Ipomoea hederacea; conditions: Ipomoea hederacea, 480 h, 16 g ai/ha, 20 DAT, read-out: observed % activity
# In short: as §1
# [8] = system: POLCO; type: in vivo, Polygonum convolvulus
# In short: as §1
# [9] = system: PHACA; type: in vivo, Phalaris canariensis; conditions: for inhibition at 8 g/ha / inhibition at 16 g/ha: Phalaris canariensis, pre-emergence, read-out: observed % activity; for inhibition at 8 g/ha: 8 g ai/ha
# In short: as §1
# [10] = system: BRADC; type: in vivo, Brachiaria decumbens; conditions: Urochloa decumbens, pre-emergence, read-out: observed % activity; for inhibition at 16 g/ha: 16 g ai/ha
# In short: as §1
# [11] = system: COMBE; type: in vivo, Commelina benghalensis; conditions: 20 DAT
# In short: as §1
# [12] = system: ALOMY; type: in vivo, Alopecurus myosuroides; conditions: Alopecurus myosuroides, pre-emergence, read-out: observed % activity; for inhibition at 8 g/ha: 8 g ai/ha; for inhibition at 16 g/ha: 16 g ai/ha
# In short: as §1
# [13] = system: SORHA; type: in vivo, Sorghum halepense; conditions: Sorghum halepense, pre-emergence, read-out: observed % activity; for inhibition at 8 g/ha: 8 g ai/ha; for inhibition at 16 g/ha: 16 g ai/ha
# Source text: The culture containers used were plastic flowerpots containing loamy sand with approximately 3.0% of humus as the substrate. The seeds of the test plants were sown separately for each species.
# For the pre-emergence treatment, the active ingredients, which had been suspended or emulsified in water, were applied directly after sowing by means of finely distributing nozzles. The containers were irrigated gently to promote germination and growth and subsequently covered with transparent plastic hoods until the plants had rooted. This cover caused uniform germination of the test plants, unless this had been impaired by the active ingredients.
# Depending on the species, the plants were kept at 10-25° C. or 20-35° C., respectively.
# The test period extended over 2 to 4 weeks. During this time, the plants were tended, and their response to the individual treatments was evaluated.
# Evaluation was carried out using a scale from 0 to 100. 100 means no emergence of the plants, or complete destruction of at least the aerial moieties, and 0 means no damage, or normal course of growth. A moderate herbicidal activity is given at values of at least 60, a good herbicidal activity is given at values of at least 70, and a very good herbicidal activity is given at values of at least 85.
# The respective stated components a and b, and if appropriate, c were formulated as a 10% by weight strength emulsion concentrate and, with addition of the amount of solvent system, introduced into the spray liquor used for applying the active compound.
# In the examples, the solvent used was water.
# In the examples below, using the method of S. R. Colby (1967) “Calculating synergistic and antagonistic responses of herbicide combinations”, Weeds 15, p. 22ff., the value E, which is expected if the activity of the individual active compounds is only additive, was calculated. E=X+Y−(X·Y/100) where • X=percent activity using active compound a at an application rate A; • Y=percent activity using active compound b at an application rate B; • E=expected activity (in %) by a+b at application rates A+B.
# If the value found experimentally is higher than the value E calculated according to Colby, a synergistic effect is present.
smiles,measurement,setting,value
"CC1(c2nc(N)nc(Nc3c(F)c(F)cc(F)c3F)n2)CCC1 [compound 8, 6-(1-methylcyclobutyl)-N4-(2,3,5,6-tetrafluorophenyl)-1,3,5-triazine-2,4-diamine]",observed % activity,"[1]; 8 g ai/ha, 20 DAT",20%
same,inhibition at 16 g/ha,"[1]; Galium aparine, pre-emergence, 192 h, 16 g ai/ha, 8 DAT, read-out: observed % activity",0%
same,observed % activity,[2]; 8 g ai/ha,20%
same,observed % activity,[2]; 16 g ai/ha,80%
same,inhibition at 16 g/ha,"[2]; Geranium pusillum, pre-emergence, 480 h, 16 g ai/ha, read-out: observed % activity",60%
same,inhibition at 8 g/ha,"[3]; 192 h, 8 DAT",30%
same,inhibition at 16 g/ha,"[3]; 192 h, 8 DAT",40%
same,inhibition at 8 g/ha,"[3]; 480 h, 20 DAT",30%
same,inhibition at 16 g/ha,"[3]; 480 h, 20 DAT",40%
same,observed % activity,[4]; 8 g ai/ha,5% and 10%
same,observed % activity,[4]; 16 g ai/ha,10%
same,inhibition at 8 g/ha,"[4]; Avena fatua, pre-emergence, 192 h, 8 g ai/ha, 8 DAT, read-out: observed % activity",0%
same,inhibition at 16 g/ha,"[4]; Avena fatua, pre-emergence, 192 h, 16 g ai/ha, 8 DAT, read-out: observed % activity",0%
same,observed % activity,[5]; 8 g ai/ha,70% and 80%
same,observed % activity,[5]; 16 g ai/ha,80%
same,inhibition at 8 g/ha,"[5]; Bassia scoparia, pre-emergence, 480 h, 8 g ai/ha, read-out: observed % activity",90%
same,inhibition at 16 g/ha,"[5]; Bassia scoparia, pre-emergence, 480 h, 16 g ai/ha, read-out: observed % activity",85%
same,observed % activity,[6]; 16 g ai/ha,65%
same,inhibition at 8 g/ha,"[6]; Euphorbia heterophylla, pre-emergence, 480 h, 8 g ai/ha, read-out: observed % activity",45%
same,inhibition at 16 g/ha,"[6]; Euphorbia heterophylla, pre-emergence, 480 h, 16 g ai/ha, read-out: observed % activity",70%
same,inhibition at 16 g/ha,[7],35%
same,observed % activity,"[8]; 8 g ai/ha, 20 DAT",0%
same,observed % activity,"[8]; 16 g ai/ha, 20 DAT",70%
same,inhibition at 8 g/ha,"[8]; Fallopia convolvulus, pre-emergence, 192 h, 8 g ai/ha, 8 DAT, read-out: observed % activity",65%
same,inhibition at 16 g/ha,"[8]; Fallopia convolvulus, pre-emergence, 480 h, 16 g ai/ha, 20 DAT, read-out: observed % activity",80%
same,observed % activity,"[9]; 16 g ai/ha, 20 DAT",60%
same,inhibition at 8 g/ha,"[9]; 192 h, 8 DAT",25%
same,inhibition at 16 g/ha,"[9]; 192 h, 16 g ai/ha, 8 DAT",40%
same,inhibition at 8 g/ha,"[9]; 480 h, 20 DAT",28%
same,inhibition at 16 g/ha,"[9]; 480 h, 16 g ai/ha, 20 DAT",50%
same,inhibition at 16 g/ha,"[10]; 192 h, 8 DAT",60%
same,inhibition at 8 g/ha,"[10]; 480 h, 8 g ai/ha, 20 DAT",78%
same,inhibition at 16 g/ha,"[10]; 480 h, 20 DAT",70%
same,observed % activity,[11]; 8 g ai/ha,50%
same,observed % activity,[11]; 16 g ai/ha,80%
same,inhibition at 8 g/ha,"[11]; Commelina benghalensis, pre-emergence, 480 h, 8 g ai/ha, read-out: observed % activity",60%
same,inhibition at 16 g/ha,"[11]; Commelina benghalensis, pre-emergence, 480 h, 16 g ai/ha, read-out: observed % activity",65%
same,inhibition at 8 g/ha,"[12]; 192 h, 8 DAT",50%
same,inhibition at 16 g/ha,"[12]; 192 h, 8 DAT",90%
same,inhibition at 8 g/ha,"[12]; 480 h, 20 DAT",55%
same,inhibition at 16 g/ha,"[12]; 480 h, 20 DAT",90%
same,inhibition at 8 g/ha,"[13]; 192 h, 8 DAT",90%
same,inhibition at 16 g/ha,"[13]; 192 h, 8 DAT",90%
same,inhibition at 8 g/ha,"[13]; 480 h, 20 DAT",90%
same,inhibition at 16 g/ha,"[13]; 480 h, 20 DAT",90%
